# Data as given in patent US20120149026A1, “INSULIN RESISTANCE MARKER” (SHIMADZU CORPORATION, priority 2009, published 2012).
# Assays:
# Assay type in all cases: cell-based, mouse
# [1] = system: proepithelin (aa297-309); test: Expression variation analysis of proepithelin protein by NBS method in insulin resistance-induced adipocytes; conditions: matured 3T3-L1 adipocytes; 4 ng/mL TNFα for four days or 20 nM dexamethazone for eight days; p-value <0.05
# Protocol: Mouse 3T3-L1 cells (ATCC No. CCL-92.1.) were added with Dulbecco's modified Eagle's medium—low glucose (Wako Pure Chemical Industries, Ltd.), 10% bovine serum (GIBCO BRL), and a penicillin/streptomycin solution (GIBCO BRL), and cultured at 37° C. in 5% carbon dioxide.
# After reaching confluent, the cells were further cultured for two days. Then the medium was replaced by a differentiation inducing medium. As the differentiation inducing medium, Dulbecco's modified Eagle's medium—high glucose (Wako Pure Chemical Industries, Ltd.) added with 10% fetal bovine serum, a penicillin/streptomycin solution (GIBCO BRL), 0.5 mM 1-methyl-3-isobutylxanthine, 1 μM dexamethazone, and 5 μg/mL insulin was used.
# After three days, the medium was replaced by Dulbecco's modified Eagle's medium—high glucose (Wako Pure Chemical Industries, Ltd.), 10% fetal bovine serum, a penicillin/streptomycin solution (GIBCO BRL), and 5 μg/mL insulin, and cultured for two days. […]
# For the obtained digests, a treatment was conducted according to the protocol of the NBS labeling kit, and the NBS-labeled peptide was concentrated. […] Comparative quantification analysis between 12C-NBS-labeled peptide and 13C-NBS-labeled peptide was conducted from the results obtained by automatic analysis of MALDI-TOF MS (AXIMA-CFR Plus; SHIMADZU CORPORATION) by using pair peak analyzing software (TWIP). […]
# [2] = system: proepithelin protein; test: Analysis of proepithelin protein by Western blotting in insulin resistance-induced adipocytes; conditions: matured 3T3-L1 adipocytes; for expression amount of proepithelin protein relative to GADPH, increase versus control: 4 ng/mL TNFα for four days or 20 nM dexamethazone for eight days, p-value <0.05
# Protocol: Using the matured adipocyte at the eighth or later day after the differentiation inducing treatment, the cells were cultured in an adipocyte maintenance medium added with 20 nM dexamethazone for eight days to induce insulin resistance, and an adipocyte in which insulin resistance was induced by dexamethazone was obtained. On the other hand, using the matured adipocyte at the eighth or later day after the differentiation inducing treatment, the cells were cultured for four days in an adipocyte maintenance medium added with 4 ng/mL TNFα to induce insulin resistance, and an adipocyte in which insulin resistance was induced by TNFα was obtained.
# A matured adipocyte in which insulin resistance was induced by the method of Reference Example 2 was solubilized in a TNE buffer (1% (w/w) Nonidet P-40, 150 mM sodium chloride, 20 mM Tris-hydrochloride (pH 7.4), 2 mM EDTA, 10 μg/mL leupeptin, 10 μg/mL aprotinine, 5 mM mercaptoethanol, 1 mM: PMSF, 1 mM Na3VO4, 10 μM sodium molybdate, and 50 mM sodium fluoride), and a protein was extracted. The extracted protein was separated by SDS-polyacrylamide gel electrophoresis (SDS-PAGE), and then transferred to a polyvinylidene fluoride (PVDF) membrane or a nitrocellulose membrane. A goat anti-proepithelin antibody (R&D Systems) was used as a primary antibody, a rabbit anti-goat IgG HRP-labeled antibody (ZYMED) was used as a secondary antibody, and ECL Blotting Detection Reagents (GE Healthcare) were used for detection of an HRP-labeled antibody.
# The result obtained in this example (analytical result of a proepithelin protein by the Western blotting method) is shown in FIG. 2. In FIG. 2A, the vertical axis represents a relative value of an expression amount of a proepithelin protein, relative to an expression amount of a house keeping protein GADPH, and for each of a control (Control), the adipocyte in which insulin resistance was induced by TNFα (TNFα), and the adipocyte in which insulin resistance was induced by dexamethazone (Dex), the relative value is shown (mean value±standard deviation (mean±S.D.), n=4, p-value: **<0.05). […]
# [3] = system: phosphorylated Akt; test: Insulin signaling-suppressing action by constant presence of proepithelin protein (Akt phosphorylation, Western blotting); conditions: matured 3T3-L1 adipocytes; proepithelin 50, 100, 200 nM for 6 hours, then 100 nM insulin for 30 minutes; FIG. 7
# Protocol: A matured adipocyte prepared according to the method of Reference Example 1 was added with a proepithelin protein (AdipoGen, Inc.) and incubated for 6 hours, and then added with 100 nM insulin and cultured for 30 minutes, or added with 100 nM insulin without addition of a proepithelin protein, and cultured for 30 minutes, to prepare an adipocytes stimulated by insulin (+100 nM Insulin). When the proepithelin protein was added, concentrations of the proepithelin protein were set at 50 nM, 100 nM, and 200 nM.
# A matured adipocyte prepared according to the method of Reference Example 1 was added with a proepithelin protein (AdipoGen, Inc.) and cultured for 6 hours, or cultured for 30 minutes without addition of both insulin and a proepithelin protein, to prepare an adipocyte not stimulated with insulin (−Insulin). When the proepithelin protein was added, concentrations of the proepithelin protein were set at 50 nM, 100 nM, and 200 nM.
# For each of the adipocyte stimulated by insulin (+100 nM Insulin) and the adipocyte not stimulated by insulin (−Insulin) obtained in the manner as described above, protein extraction and Western blotting were conducted in the same manner as in Example 6.
# [4] = system: pAkt-Ser473; test: Effect of proepithelin protein on insulin signaling (Akt phosphorylation, Western blotting); conditions: matured 3T3-L1 adipocytes; proepithelin 10, 50, 100, 200 nM, cultured for 30 minutes, with or without 100 nM insulin; FIG. 6
# Protocol: A matured adipocyte prepared according to the method of Reference Example 1 was added with 100 nM insulin and a proepithelin protein (AdipoGen, Inc.) and cultured for 30 minutes, or added with 100 nM insulin without addition of proepithelin protein and cultured for 30 minutes to prepare an adipocyte (+100 nM Insulin) stimulated by insulin. When the proepithelin protein was added, concentrations of the proepithelin protein were 10 nM, 50 nM, 100 nM, and 200 nM.
# The obtained adipocyte stimulated by insulin was solubilized in an RIPA buffer {1% (W/w) Triton X-100, 1% sodium deoxycholate, 0.1% sodium dodecylsulfate, 150 mM sodium chloride, 20 mM Tris-hydrochloride (pH7.4), 2 mM EDTA, 10 μg/mL leupeptin, 10 μg/mL aprotinin, 5 mM mercaptoethanol, 1 mM PMSF, 1 mM Na3VO4, 10 μM sodium molybdate, 50 mM sodium fluoride}, and proteins were extracted.
# The extracted proteins were subjected to the Western blotting method. Concretely, following separation by SDS-polyacrylamide gel electrophoresis (SOS-PAGE), the protein was transferred to a polyvinylidene fluoride (PVDF) membrane or a nitrocellulose membrane. […]
Molecule,"relative intensity of proepithelin (aa297-309) NBS-labeled peptide, insulin resistance adipocyte relative to normal adipocyte [1] [times]","expression amount of proepithelin protein relative to GADPH, increase versus control [2] [times]","upregulation of proepithelin protein with varied inducer concentration ([2]; concentrations of TNFα (ng/ml) and dexamethazone (nM) changed, FIG. 3)",phosphorylation level of an Akt protein after preliminary treatment [3],phosphorylation level at 473th serine in the Akt protein [4]
tumor necrosis factor α [TNFα],1.66,1.83,dependent on the concentration,,
C[C@@H]1C[C@H]2[C@@H]3CCC4=CC(=O)C=C[C@]4(C)[C@@]3(F)[C@@H](O)C[C@]2(C)[C@@]1(O)C(=O)CO [dexamethazone],3.01,1.95,,,
"proepithelin protein: epithelin precursor protein having seven kinds of epithelin domains; purchased from AdipoGen, Inc. (protein, human) MWTLVSWVALTAGLVAGTRCPDGQFCPVACCLDPGGASYSCCRPLLDKWPTTLSRHLGGPCQVDAHCSAGHSCIFTVSGTSSCCPFPEAVACGDGHHCCPRGFHCSADGRSCFQRSGNNSVGAIQCPDSQFECPDFSTCCVMVDGSWGCCPMPQASCCEDRVHCCPHGAFCDLVHTRCITPTGTHPLAKKLPAQRTNRAVALSSSVMCPDARSRCPDGSTCCELPSGKYGCCPMPNATCCSDHLHCCPQDTVCDLIQSKCLSKENATTDLLTKLPAHTVGDVKCDMEVSCPDGYTCCRLQSGAWGCCPFTQAVCCEDHIHCCPAGFTCDTQKGTCEQGPHQVPWMEKAPAHLSLPDPQALKRDVPCDNVSSCPSSDTCCQLTSGEWGCCPIPEAVCCSDHQHCCPQGYTCVAEGQCQRGSEIVAGLEKMPARRASLSHPRDIGCDQHTSCPVGQTCCPSLGGSWACCQLPHAVCCEDRQHCCPAGYTCNVKARSCEKEVVSAQPATFLARSPHVGVKDVECGEGHFCHDNQTCCRDNRQGWACCPYRQGVCCADRRHCCPAGFRCAARGTKCLRREAPRWDAPLRDPALRQLL",,,,decreased,increased with the concentration of added proepithelin
